These results are taken from patent US4672068A, “Antihypertensive 1,4-dihydropyridines having a conjugated ester” (Fujirebio Kabushiki Kaisha, priority 1984, dated 1987).

Data set [1] relates to Male SHR, systolic blood pressure. The data set is described as follows: Systolic blood pressure by tail cuff method, oral administration (3 mg/kg), Table 4. Format: in vivo, rat. As to conditions: conscious SHR; for Duration: '24<' means greater than 24. As to the method:
Systolic blood pressure was measured by the tail cuff method with electrophygmomanometer (PE-300, made by Narco Co.). Each derivative (3 mg/kg) was administered orally, suspended in 5% gum arabic solution.

Data set [2] deals with Male spontaneously hypertensive rats (SHR), arterial blood pressure. The data set is described as follows: Depressor response after intravenous administration (30 μg/kg), Table 1. Format: in vivo, rat. As to conditions: for Duration: '90<' means greater than 90. In a few lines: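 Conscious restrained SHR with mean arterial pressure above 140 mmHg; pressure recorded via abdominal aortic catheter and transducer. Dosing was at least 2 h after surgery, through a caudal vein catheter. Compound was given in 1.5% PVP/ethanol diluted with 0.9% saline.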

For data set [3] the test system is unchanged. The data set is described as follows: Depressor response after intraduodenal administration (1 mg/kg), Table 2. As to conditions: for Half-life: '120<' means greater than 120. Format: in vivo, rat. The procedure:
Arterial blood pressure was measured through the catherized artery with a pressure transducer (MPU-0.5, manufactured by Nihon Kohden Kabushiki Kaisha). The catheter was inserted into the abdominal aorta via the median coccygcal artery of SHR under light ether anesthesia. The recordings were made on a rectigraph (manufactured by Sanei Sokki Kabushiki Kaisha). The 1,4-dihydropyridine derivatives prepared in the foregoing examples were administered with catheter which was inserted previously into the caudal vein or duodenum at least two hours after the operation. SHR were restrained with wire mesh cage immediately after the operation.

In data set [4] the test system is rat (SHR), blood pressure and heart rate. Description: Depressor response of trans- and cis-forms, dose-response intravenous, Tables 5 and 6. Format: in vivo. To be noted: for ED40: Rattus norvegicus, intravenous, from regression line. The procedure:
Male spontaneously hypertensive rats (SHR) which had mean arterial blood pressures higher than 140 mmHg were used for the experiments. Arterial blood pressure was measured through the catherized artery with a pressure transducer (MPU-0.5, manufactured by Nihon Kohden Kabushiki Kaisha). The catheter was inserted into the abdominal aorta via the median coccygcal artery of SHR under light ether anesthesia. The recordings were made on a rectigraph (manufactured by Sanei Sokki Kabushiki Kaisha). The 1,4-dihydropyridine derivatives prepared in the foregoing examples were administered with catheter which was inserted previously into the caudal vein or duodenum at least two hours after the operation. SHR were restrained with wire mesh cage immediately after the operation. […]

The nature of the next data set: in vivo. As to conditions: mouse, iv, male ddy mice, caudal vein injection, '60<' means greater than 60. As to the method:
Acute toxicity of several derivatives was tested with male ddy mice weighed 15-30 grams by the up and down method. Each derivative was dissolved in 1.5% PVP/ethanol solution, and diluted with a saline solution. Such derivative solution was injected into the caudal vein, and the acute toxicity was determined.

The structures appear in SMILES notation.

For the compound `COC(=O)C1=C(C)NC(C)=C(C(=O)OC)C1c1ccccc1[N+](=O)[O-]` [A, 4-(o-nitrophenyl)-2,6-dimethyl-1,4-dihydropyridine-3,5-dicarboxylic acid dimethyl ester, reference compound], in data set [1], the “ΔBP After 1 hour” value is -45 mmHg, the “ΔBP After 3 hours” value is listed as -22.0 mmHg and the Duration was under 7 h. For the same compound, in data set [2], the “The time to reach the lowest BP” value was found to be 0.9 min, the “ΔBP (Maximum depressor response)” value amounted to 18.7 mmHg and the Duration is listed as 35.6 ± 6.5 min. For the same compound, in data set [3], the “The time to reach the lowest BP” value amounted to 6.0 min and the “ΔBP (Maximum depressor response)” value was 48.3 mmHg.
On to `COC(=O)C1=C(C)NC(C)=C(C(=O)OC/C=C/c2ccccc2)C1c1cccc([N+](=O)[O-])c1` (stereo not drawn) [Example 1, cinnamyl methyl 4-(3-nitrophenyl)-2,6-dimethyl-1,4-dihydropyridine-3,5-dicarboxylate (trans)], for which, in data set [4] (10 μg/kg i.v.), the “Depressure Response MaxΔBP” value is 35.0 mmHg, the “Depressure Response Peak” value came out at 2.0 min, the “MaxΔHR (Heart rates)” value is recorded as 28.3 beats/min and the “T 1/2 (Halflife)” value is listed as 32.6 min. In data set [4] (30 μg/kg i.v.), the “Depressure Response MaxΔBP” value came to 52.2 mmHg, the “Depressure Response Peak” value was determined as 1.8 min, the “MaxΔHR (Heart rates)” value was 65.3 beats/min and the “T 1/2 (Halflife)” value was 26.7 min. In data set [4] (100 μg/kg i.v.), the “Depressure Response MaxΔBP” value is listed as 69.0 mmHg, the “Depressure Response Peak” value is 2.0 min, the “MaxΔHR (Heart rates)” value was 32.5 beats/min and the “T 1/2 (Halflife)” value was found to be 48.5 min. Further, the ED40 in data set [4] was 0.0156 mg/kg. For the same compound, in data set [1], the “ΔBP After 1 hour” value is on record as -75 mmHg, the “ΔBP After 3 hours” value is on record as -80.5 mmHg and the Duration lay in the range of 7 to 24 h. In addition, in data set [2], the “The time to reach the lowest BP” value is given as 1.7 min, the “ΔBP (Maximum depressor response)” value is reported as 44 mmHg and the Duration is listed as over 90 min. Moreover, in data set [3], the “The time to reach the lowest BP” value amounted to 43.7 min, the “ΔBP (Maximum depressor response)” value is reported as 35.0 mmHg and the Half-life was over 120 min.
As for `COC(=O)C1=C(C)NC(C)=C(C(=O)OCC=Cc2ccco2)C1c1cccc([N+](=O)[O-])c1` (stereo not drawn) [Example 7, 3-(2furyl)-2-propenyl methyl 4-(3-nitrophenyl)-2,6-dimethyl-1,4-dihydropyridine-3,5-dicarboxylate], the LD50 in “in vivo” is over 60 mg/kg. Moreover, in data set [3], the “The time to reach the lowest BP” value stood at 105 min, the “ΔBP (Maximum depressor response)” value came to 20 mmHg and the Half-life is over 120 min.
Take `COC(=O)C1=C(C)NC(C)=C(C(=O)OCCC=Cc2ccc3ccccc3c2)C1c1cccc([N+](=O)[O-])c1` (stereo not drawn) [Example 12, 4-β-naphthyl-3-butenyl methyl 4-(3-nitrophenyl)-2,6-dimethyl-1,4-dihydropyridine-3,5-dicarboxylate]: in data set [1], the “ΔBP After 1 hour” value is on record as -30 mmHg, the “ΔBP After 3 hours” value is given as -55 mmHg and the Duration was over 24 h.
Consider `CCOC(=O)C1=C(C)NC(C)=C(C(=O)OCC=Cc2ccccc2)C1c1cccc([N+](=O)[O-])c1` (stereo not drawn) [Example 15, Cinnamyl ethyl 4-(3-nitrophenyl)-2,6-dimethyl-1,4-dihydropyridine-3,5-dicarboxylate], for which, in data set [1], the “ΔBP After 3 hours” value is on record as -35 mmHg and the Duration was 7 to 24 h. Further, in data set [3], the “The time to reach the lowest BP” value amounted to 75 min, the “ΔBP (Maximum depressor response)” value came to 45 mmHg and the Half-life is over 120 min.
Consider `COC(=O)C1=C(C)NC(C)=C(C(=O)OCC=CC=Cc2ccccc2)C1c1cccc([N+](=O)[O-])c1` (stereo not drawn) [Example 16, 5-phenyl-2,4-pentadienyl methyl 4-(3-nitrophenyl)-2,6-dimethyl-1,4-dihydropyridine-3,5-dicarboxylate], for which, in data set [1], the “ΔBP After 1 hour” value was -55 mmHg, the “ΔBP After 3 hours” value was -60 mmHg and the Duration is over 24 h. Further, in data set [3], the “The time to reach the lowest BP” value was determined as 50 min, the “ΔBP (Maximum depressor response)” value worked out at 45 mmHg and the Half-life was over 120 min.
As to `COC(=O)C1=C(C)NC(C)=C(C(=O)OC(C=Cc2ccccc2)c2ccccc2)C1c1cccc([N+](=O)[O-])c1` (stereo not drawn) [Example 27, 1,3-diphenyl-2-propenyl methyl 4-(3-nitrophenyl)-2,6-dimethyl-1,4-dihydropyridine-3,5-dicarboxylate], in data set [1], the “ΔBP After 1 hour” value was -130 mmHg and the “ΔBP After 3 hours” value was -113 mmHg. In data set [2], the “The time to reach the lowest BP” value is 56 min, the “ΔBP (Maximum depressor response)” value turned out to be 45 mmHg and the Duration was over 240 min. For the same compound, in data set [3], the “The time to reach the lowest BP” value turned out to be 170 min, the “ΔBP (Maximum depressor response)” value was 82 mmHg and the Half-life was over 240 min.
For the compound `COC(=O)C1=C(C)NC(C)=C(C(=O)OC(C)C=Cc2ccco2)C1c1cccc([N+](=O)[O-])c1` (stereo not drawn) [Example 33, 1-methyl-3-furyl-3-propenyl methyl 4-(3-nitrophenyl)-2,6-dimethyl-1,4-dihydropyridine-3,5-dicarboxylate], in data set [2], the “The time to reach the lowest BP” value stood at 10.0 min, the “ΔBP (Maximum depressor response)” value came out at 85 mmHg and the Duration was over 240 min. Besides, in data set [3], the “The time to reach the lowest BP” value turned out to be 22 min, the “ΔBP (Maximum depressor response)” value is 100 mmHg and the Half-life was over 240 min.
`CC1=C(C(=O)OCC=Cc2ccccc2)C(c2cccc([N+](=O)[O-])c2)C(C(=O)OCCOc2ccccc2)=C(C)N1` (stereo not drawn) [Example 44, Cinnamyl 2-phenoxyethyl 4-(3-nitrophenyl)-2,6-dimethyl-1,4-dihydropyridine-3,5-dicarboxylate]: in data set [1], the “ΔBP After 1 hour” value is reported as -30 mmHg, the “ΔBP After 3 hours” value is given as -70 mmHg and the Duration is 7 to 24 h. Moreover, in data set [2], the “The time to reach the lowest BP” value stood at 7 min, the “halflife (number in parentheses in Duration column)” value came out at 45 min and the “ΔBP (Maximum depressor response)” value stood at 43 mmHg.
Turning to `COC(=O)C1=C(C)NC(C)=C(C(=O)OCCCC=Cc2ccccc2)C1c1cccc([N+](=O)[O-])c1` (stereo not drawn) [Example 50, Methyl 5-phenyl-4-pentenyl 4-(3-nitrophenyl)-2,6-dimethyl-1,4-dihydropyridine-3,5-dicarboxylate], the “ΔBP After 1 hour” value in data set [1] is -75 mmHg. For the same compound, in data set [2], the “The time to reach the lowest BP” value came to 2 min, the “ΔBP (Maximum depressor response)” value turned out to be 64 mmHg and the Duration is recorded as over 90 min.
Turning to `COC(=O)C1=C(C)NC(C)=C(C(=O)OC/C=C\c2ccccc2)C1c1cccc([N+](=O)[O-])c1` (stereo not drawn) [Example 56, Methyl (Z)-3-phenyl-2-propenyl 4-(3-nitrophenyl)-2,6-dimethyl-1,4-dihydropyridine-3,5-dicarboxylate (cis)], in data set [4] (10 μg/kg i.v.), the “Depressure Response MaxΔBP” value came out at 16.0 mmHg, the “Depressure Response Peak” value is 1.2 min, the “MaxΔHR (Heart rates)” value amounted to 30.0 beats/min and the “T 1/2 (Halflife)” value stood at 6.3 min. Also, in data set [4] (30 μg/kg i.v.), the “Depressure Response MaxΔBP” value amounted to 40.3 mmHg, the “Depressure Response Peak” value is on record as 1.3 min, the “MaxΔHR (Heart rates)” value was found to be 80.0 beats/min and the “T 1/2 (Halflife)” value is reported as 11.9 min. In data set [4] (100 μg/kg i.v.), the “Depressure Response MaxΔBP” value was 67.5 mmHg, the “Depressure Response Peak” value amounted to 1.8 min, the “MaxΔHR (Heart rates)” value is on record as 87.5 beats/min and the “T 1/2 (Halflife)” value was 32.0 min. In addition, the ED40 in data set [4] is 0.0299 mg/kg. Moreover, in data set [2], the “The time to reach the lowest BP” value was found to be 1.3 min and the “ΔBP (Maximum depressor response)” value was determined as 40.3 mmHg.
Turning to `CC1=C(C(=O)OCC=CC=Cc2ccccc2)C(c2cccc([N+](=O)[O-])c2)C(C(=O)OC(C)C)=C(C)N1` (stereo not drawn) [Example 61, Isopropyl 5-phenyl-2,4-pentadienyl 4-(3-nitrophenyl)-2,6-dimethyl-1,4-dihydropyridine-3,5-dicarboxylate], in data set [1], the “ΔBP After 1 hour” value is listed as -40 mmHg and the “ΔBP After 3 hours” value was -100 mmHg. Moreover, in data set [2], the “The time to reach the lowest BP” value is listed as 7.0 min, the “ΔBP (Maximum depressor response)” value stood at 85 mmHg and the Duration is given as over 90 min.
As for `CC=CC=CCOC(=O)C1=C(C)NC(C)=C(C(=O)OC)C1c1cccc([N+](=O)[O-])c1` (stereo not drawn) [Example 66, methyl 2,4-hexadienyl 4-(3-nitrophenyl)-2,6-dimethyl-1,4-dihydropyridine-3,5-dicarboxylate], in data set [2], the “The time to reach the lowest BP” value is given as 1.4 min, the “halflife (number in parentheses in Duration column)” value is listed as 43.3 min, the “ΔBP (Maximum depressor response)” value amounted to 71.7 mmHg and the Duration is listed as over 90 min. Further, in data set [3], the “The time to reach the lowest BP” value is 35 min, the “ΔBP (Maximum depressor response)” value was 65 mmHg and the Half-life was over 120 min.
